# Measurements reported in PubChem BioAssay (NCI).
#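 GI50 is the concentration that inhibits growth by half. TGI is the concentration that stops growth completely.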
# Assays:
# Assay in all cases: DTP human tumour cell line panel, 384-well format
# UACC-257 melanoma = system: UACC-257 melanoma
# NCI-H522 lung = system: NCI-H522 lung
# OVCAR-3 ovarian = system: OVCAR-3 ovarian
# HT29 colon = system: HT29 colon
# OVCAR-8 ovarian = system: OVCAR-8 ovarian
# OVCAR-5 ovarian = system: OVCAR-5 ovarian
# HS 578T breast = system: HS 578T breast
# IGROV1 ovarian = system: IGROV1 ovarian
# SNB-75 CNS = system: SNB-75 CNS
# UO-31 renal = system: UO-31 renal
# NCI-H23 lung = system: NCI-H23 lung
# HOP-92 NSCLC = system: HOP-92 NSCLC
# MDA-MB-231 breast = system: MDA-MB-231 breast
# UACC-62 melanoma = system: UACC-62 melanoma
# COLO 205 colon = system: COLO 205 colon
# MDA-MB-468 breast = system: MDA-MB-468 breast
# CAKI-1 renal = system: CAKI-1 renal
# HOP-62 NSCLC = system: HOP-62 NSCLC
# SF-539 CNS = system: SF-539 CNS
# ACHN renal = system: ACHN renal
# DU-145 prostate = system: DU-145 prostate
# SF-268 CNS = system: SF-268 CNS
# SK-OV-3 ovarian = system: SK-OV-3 ovarian
# SN12C renal = system: SN12C renal
# SW-620 colon = system: SW-620 colon
# HCC-2998 colon = system: HCC-2998 colon
# M14 melanoma = system: M14 melanoma
# SK-MEL-5 melanoma = system: SK-MEL-5 melanoma
# HCT-15 colon = system: HCT-15 colon
# NCI-H460 NSCLC = system: NCI-H460 NSCLC
# TK-10 renal = system: TK-10 renal
# CCRF-CEM leukemia = system: CCRF-CEM leukemia
# 786-0 renal = system: 786-0 renal
# SR leukemia = system: SR leukemia
# MOLT-4 leukemia = system: MOLT-4 leukemia
# NCI-H322M lung = system: NCI-H322M lung
# LOX IMVI melanoma = system: LOX IMVI melanoma
# U251 glioblastoma = system: U251 glioblastoma
# PC-3 prostate = system: PC-3 prostate
# K-562 leukemia = system: K-562 leukemia
# EKVX NSCLC = system: EKVX NSCLC
# RXF 393 renal = system: RXF 393 renal
# SNB-19 CNS = system: SNB-19 CNS
# HL-60(TB) leukemia = system: HL-60(TB) leukemia
# OVCAR-4 ovarian = system: OVCAR-4 ovarian
# SK-MEL-28 melanoma = system: SK-MEL-28 melanoma
# NCI/ADR-RES ovarian = system: NCI/ADR-RES ovarian
# NCI-H226 lung = system: NCI-H226 lung
# MDA-MB-435 melanoma = system: MDA-MB-435 melanoma
# KM12 colon = system: KM12 colon
# A549 NSCLC = system: A549 NSCLC
# MALME-3M melanoma = system: MALME-3M melanoma
# BT-549 breast = system: BT-549 breast
# MCF7 breast = system: MCF7 breast
# A498 renal = system: A498 renal
# SF-295 CNS = system: SF-295 CNS
# RPMI-8226 leukemia = system: RPMI-8226 leukemia
# T-47D breast = system: T-47D breast
# SK-MEL-2 melanoma = system: SK-MEL-2 melanoma
structure (smiles),measurement,setting,value
Cc1sc2c(c1C)C(c1ccc(Cl)cc1)=N[C@@H](CC(=O)OC(C)(C)C)c1nnc(C)n1-2,GI50,UACC-257 melanoma,58.1 nM
same,TGI,UACC-257 melanoma,1940 nM
same,GI50,NCI-H522 lung,56 nM
same,TGI,NCI-H522 lung,434 nM
same,GI50,OVCAR-3 ovarian,86 nM
same,TGI,OVCAR-3 ovarian,1070 nM
same,GI50,HT29 colon,82 nM
same,TGI,HT29 colon,12600 nM
same,GI50,OVCAR-8 ovarian,91.7 nM
same,TGI,OVCAR-8 ovarian,1750 nM
same,GI50,OVCAR-5 ovarian,183 nM
same,TGI,OVCAR-5 ovarian,14500 nM
same,GI50,HS 578T breast,30.7 nM
same,TGI,HS 578T breast,266 nM
same,GI50,IGROV1 ovarian,160 nM
same,TGI,IGROV1 ovarian,1190 nM
same,GI50,SNB-75 CNS,634 nM
same,TGI,SNB-75 CNS,19100 nM
same,GI50,UO-31 renal,837 nM
same,TGI,UO-31 renal,20600 nM
same,GI50,NCI-H23 lung,148 nM
same,TGI,NCI-H23 lung,3500 nM
same,GI50,HOP-92 NSCLC,74.4 nM
same,TGI,HOP-92 NSCLC,13600 nM
same,GI50,MDA-MB-231 breast,57.7 nM
same,TGI,MDA-MB-231 breast,13700 nM
same,GI50,UACC-62 melanoma,43 nM
same,TGI,UACC-62 melanoma,10500 nM
same,GI50,COLO 205 colon,100 nM
same,TGI,COLO 205 colon,11500 nM
same,GI50,MDA-MB-468 breast,37.3 nM
same,TGI,MDA-MB-468 breast,109 nM
same,GI50,CAKI-1 renal,53.9 nM
same,TGI,CAKI-1 renal,13000 nM
same,GI50,HOP-62 NSCLC,71.9 nM
same,TGI,HOP-62 NSCLC,10900 nM
same,GI50,SF-539 CNS,286 nM
same,TGI,SF-539 CNS,12900 nM
same,GI50,ACHN renal,560 nM
same,TGI,ACHN renal,16900 nM
same,GI50,DU-145 prostate,2220 nM
same,TGI,DU-145 prostate,20100 nM
same,GI50,SF-268 CNS,984 nM
same,TGI,SF-268 CNS,19300 nM
same,GI50,SK-OV-3 ovarian,142 nM
same,TGI,SK-OV-3 ovarian,6780 nM
same,GI50,SN12C renal,3260 nM
same,TGI,SN12C renal,19900 nM
same,GI50,SW-620 colon,10100 nM
same,TGI,SW-620 colon,21800 nM
same,GI50,HCC-2998 colon,94.6 nM
same,TGI,HCC-2998 colon,394 nM
same,GI50,M14 melanoma,447 nM
same,TGI,M14 melanoma,17500 nM
same,GI50,SK-MEL-5 melanoma,96.4 nM
same,TGI,SK-MEL-5 melanoma,1910 nM
same,GI50,HCT-15 colon,48.4 nM
same,TGI,HCT-15 colon,371 nM
same,GI50,NCI-H460 NSCLC,1040 nM
same,TGI,NCI-H460 NSCLC,15000 nM
same,GI50,TK-10 renal,91.5 nM
same,TGI,TK-10 renal,8290 nM
same,GI50,CCRF-CEM leukemia,230 nM
same,TGI,CCRF-CEM leukemia,1680 nM
same,GI50,786-0 renal,118 nM
same,TGI,786-0 renal,13800 nM
same,GI50,SR leukemia,27.3 nM
same,TGI,SR leukemia,252 nM
same,GI50,MOLT-4 leukemia,201 nM
same,TGI,MOLT-4 leukemia,1170 nM
same,GI50,NCI-H322M lung,241 nM
same,TGI,NCI-H322M lung,14600 nM
same,GI50,LOX IMVI melanoma,57.3 nM
same,TGI,LOX IMVI melanoma,223 nM
same,GI50,U251 glioblastoma,1170 nM
same,TGI,U251 glioblastoma,17900 nM
same,GI50,PC-3 prostate,744 nM
same,TGI,PC-3 prostate,16500 nM
same,GI50,K-562 leukemia,139 nM
same,TGI,K-562 leukemia,13500 nM
same,GI50,EKVX NSCLC,4610 nM
same,TGI,EKVX NSCLC,20500 nM
same,GI50,RXF 393 renal,1140 nM
same,TGI,RXF 393 renal,17500 nM
same,GI50,SNB-19 CNS,371 nM
same,TGI,SNB-19 CNS,16200 nM
same,GI50,HL-60(TB) leukemia,23.3 nM
same,TGI,HL-60(TB) leukemia,73.2 nM
same,GI50,OVCAR-4 ovarian,42.1 nM
same,TGI,OVCAR-4 ovarian,254 nM
same,GI50,SK-MEL-28 melanoma,448 nM
same,TGI,SK-MEL-28 melanoma,16700 nM
same,GI50,NCI/ADR-RES ovarian,80.5 nM
same,TGI,NCI/ADR-RES ovarian,839 nM
same,GI50,NCI-H226 lung,106 nM
same,TGI,NCI-H226 lung,12300 nM
same,GI50,MDA-MB-435 melanoma,599 nM
same,TGI,MDA-MB-435 melanoma,10700 nM
same,GI50,KM12 colon,322 nM
same,TGI,KM12 colon,13200 nM
same,GI50,A549 NSCLC,177 nM
same,TGI,A549 NSCLC,13600 nM
same,GI50,MALME-3M melanoma,96.7 nM
same,TGI,MALME-3M melanoma,2330 nM
same,GI50,BT-549 breast,51 nM
same,TGI,BT-549 breast,869 nM
same,GI50,MCF7 breast,38.3 nM
same,TGI,MCF7 breast,10300 nM
same,GI50,A498 renal,197 nM
same,TGI,A498 renal,9700 nM
same,GI50,SF-295 CNS,815 nM
same,TGI,SF-295 CNS,17300 nM
same,GI50,RPMI-8226 leukemia,26.8 nM
same,TGI,RPMI-8226 leukemia,74.7 nM
same,GI50,T-47D breast,293 nM
same,TGI,T-47D breast,13200 nM
CO[C@H](C(=O)[C@@H](O)[C@@H](C)O)[C@@H]1Cc2cc3cc(OC4CC(OC5CC(O)C(O)C(C)O5)C(O)C(C)O4)c(C)c(O)c3c(O)c2C(=O)[C@H]1OC1CC(OC2CC(OC3CC(C)(O)C(O)C(C)O3)C(O)C(C)O2)C(O)C(C)O1 (stereo not given in full),GI50,UACC-257 melanoma,18.5 nM
same,TGI,UACC-257 melanoma,34.5 nM
same,GI50,NCI-H522 lung,13 nM
same,TGI,NCI-H522 lung,26.8 nM
same,GI50,OVCAR-3 ovarian,20.3 nM
same,TGI,OVCAR-3 ovarian,73.4 nM
same,GI50,OVCAR-8 ovarian,15.5 nM
same,TGI,OVCAR-8 ovarian,29.9 nM
same,GI50,OVCAR-5 ovarian,19.5 nM
same,TGI,OVCAR-5 ovarian,43.5 nM
same,GI50,HS 578T breast,13.2 nM
same,TGI,HS 578T breast,27.7 nM
same,GI50,SNB-75 CNS,11.8 nM
same,TGI,SNB-75 CNS,30.4 nM
same,GI50,UO-31 renal,182 nM
same,TGI,UO-31 renal,451 nM
same,GI50,NCI-H23 lung,18.4 nM
same,TGI,NCI-H23 lung,35.9 nM
same,GI50,HOP-92 NSCLC,31.7 nM
same,GI50,MDA-MB-231 breast,16.6 nM
same,TGI,MDA-MB-231 breast,37.2 nM
same,TGI,UACC-62 melanoma,21.6 nM
same,GI50,MDA-MB-468 breast,16.3 nM
same,TGI,MDA-MB-468 breast,32.4 nM
same,GI50,HOP-62 NSCLC,13.7 nM
same,TGI,HOP-62 NSCLC,29.5 nM
same,GI50,SF-539 CNS,13.6 nM
same,TGI,SF-539 CNS,27.1 nM
same,GI50,ACHN renal,54.6 nM
same,TGI,ACHN renal,294 nM
same,GI50,DU-145 prostate,28.8 nM
same,GI50,SF-268 CNS,17.2 nM
same,TGI,SF-268 CNS,965 nM
same,GI50,SN12C renal,15.2 nM
same,TGI,SN12C renal,36.9 nM
same,GI50,SW-620 colon,32.4 nM
same,GI50,M14 melanoma,18 nM
same,TGI,M14 melanoma,39.8 nM
same,GI50,HCT-15 colon,139 nM
same,TGI,HCT-15 colon,970 nM
same,GI50,TK-10 renal,50.3 nM
same,GI50,CCRF-CEM leukemia,33.9 nM
same,TGI,CCRF-CEM leukemia,110 nM
same,TGI,MOLT-4 leukemia,17.7 nM
same,GI50,NCI-H322M lung,17.4 nM
same,TGI,NCI-H322M lung,42.2 nM
same,GI50,LOX IMVI melanoma,16.9 nM
same,TGI,LOX IMVI melanoma,31.2 nM
same,GI50,PC-3 prostate,32.9 nM
same,TGI,PC-3 prostate,220 nM
same,GI50,K-562 leukemia,18.8 nM
same,TGI,K-562 leukemia,40.4 nM
same,GI50,EKVX NSCLC,75.1 nM
same,TGI,EKVX NSCLC,11000 nM
same,GI50,RXF 393 renal,10.7 nM
same,TGI,RXF 393 renal,23.1 nM
same,GI50,SNB-19 CNS,23.7 nM
same,GI50,HL-60(TB) leukemia,14 nM
same,TGI,HL-60(TB) leukemia,29.4 nM
same,GI50,OVCAR-4 ovarian,31.6 nM
same,TGI,OVCAR-4 ovarian,371 nM
same,GI50,SK-MEL-28 melanoma,16.4 nM
same,TGI,SK-MEL-28 melanoma,30.5 nM
same,GI50,MDA-MB-435 melanoma,18.9 nM
same,TGI,MDA-MB-435 melanoma,38.4 nM
same,GI50,SK-MEL-2 melanoma,32.9 nM
same,TGI,SK-MEL-2 melanoma,47.9 nM
same,GI50,A549 NSCLC,30.4 nM
same,GI50,MALME-3M melanoma,14.1 nM
same,TGI,MALME-3M melanoma,28 nM
same,GI50,BT-549 breast,10.6 nM
same,TGI,BT-549 breast,23.7 nM
same,GI50,RPMI-8226 leukemia,11.1 nM
same,TGI,RPMI-8226 leukemia,23.6 nM
